Data on three molecules can be found in PMC5906549, “Cathelicidin-Derived Antimicrobial Peptides Inhibit Zika Virus Through Direct Inactivation and Interferon Pathway” (Frontiers in Immunology, 2018).

Peptide text beside a SMILES is read from it.

One series can be described thus: in vitro. As to conditions: African green monkey. How it is done:
(§1) Cell viability was examined by the CellTiter 96 ®Aqueous One Solution Cell Proliferation Assay (Promega, Madison, WI, USA). Vero cells and astrocytes were seeded into 96-well tissue culture plates (Fisher Scientific) and treated with fresh growth medium containing different concentrations of each peptide for 2 or 4 days at 37°C. At the experimental end point, MTS [3-(4,5-dimethylthiazol-2-yl)-5-(3-carboxymethoxyphenyl)-2-(4-sulfophenyl)-2H-tetrazolium] was added to the cultures and incubated for 1 h. The absorbance at 490 nm was recorded through BioTek Gen5 data analysis software (Winooski), VT, optical density (OD) values were used as a representation of cell viability.
(§2) (A) Vero cells were treated with doses of peptides ranging from 1 to 50 µM. After 24 h, the cultures were washed and treated with same doses of peptides in fresh medium for another 24 h. Cell viability was determined by a colorimetric MTS assay. Results shown are the averages ±SD of experiments performed in triplicate. Data were analyzed by non-linear regression. The EC50 was assessed for each of the antimicrobial peptides. (B) Vero cells were treated with doses of peptides ranging from 0.4 to 10 µM for 2 h then infected with ZIKV at the MOI of 0.5. After 24 h, the cultures were washed and treated with same doses of peptides in fresh medium for another 24 h. ZIKA RNA was detected in total cellular RNA through real-time RT-PCR. Data were normalized to GAPDH and presented as fold change (in log scale) compared with ZIKV group. ** p < 0.01 and *** p < 0.001, as compared with the ZIKV group without the peptide treatment (ANOVA, N = 3).
(§3) A, B) Vero cells were treated with 10 µM AMPs for 2 days or 4 days as outlined in the figure. For 4-day treatment, Vero cells were repeatedly treated with 10 µM AMPs at 2-day post-treatment. At the experimental end point, cell viability was determined by a colorimetric MTS assay CellTiter 96® AQueous One Solution Assay (Promega, Madison, WI) based on the manufacture’s instruction. Results were normalized as percentage of cell viability in control astrocytes. CTL, control. * denotes p < 0.05, ** denotes p < 0.01, *** denotes p < 0.001 as compared to the control group without peptide treatment (ANOVA, N = 3).

For a further series, the system named is Vero cells. As to the kind of experiment: in vitro. How it is done:
as §1, §2, §3

The subject of another series is IFN-α2. Briefly: IFN-α2 expression in human fetal astrocytes (real-time RT-PCR). Format: cell-based. As to conditions: for IFN-α2 expression in ZIKV-infected fetal astrocytes: ZIKV MOI 0.5, AMPs 0.4 to 10 µM, 48 h; for IFN-α2 expression in ZIKV-infected fetal astrocytes / IFN-α2 expression in uninfected fetal astrocytes: normalized to 18-s rRNA, N = 3; for IFN-α2 expression in uninfected fetal astrocytes: AMP treatment 48 h. How it is done:
Total mRNA was isolated with TRIzol Reagent (Thermo Fisher Scientific) and RNeasy Mini Kit (QIAGEN Inc., Valencia, CA, USA) following the manufacturer’s recommendations. Two real-time RT-PCR methods were used for the current studies. First, SYBR Green-based RT-PCR assay was used to determine intracellular ZIKV RNA in Vero cells. For this assay, reverse transcription was performed using Verso cDNA synthesis Kit (Thermo Fisher Scientific) and 1 µg of total RNA in a 15-µL final volume. The RT-PCR analyses were performed using 7.5-µL SYBR Green PCR Master Mix (Thermo Fisher Scientific) with 0.5-µL cDNA, 1.5-µL H2O, 5.5-µL oligonucleotide primer pairs at 10 µM. […] GG-3. PCR program: 1, 50°C for 2 min; 2, 95°C for 2 min; 3, 95°C for 15 s; 4, specific annealing temperature for 15 s; 5, 72°C for 1 min. Steps 2–4 were repeated 40 times. All samples were amplified in triplicate for analysis. Relative ZIKV RNA levels were determined and standardized with a GAPDH internal control using comparative ΔΔCT method ([35]). Second, TaqMan-based RT-PCR assay was used to determine intracellular ZIKV RNA and other gene expressions in Figures 3–6 and extracellular ZIKV RNA in Figure 3. The TaqMan assay was performed in a StepOne^TM Real-Time PCR system (Thermo Fisher Scientific). Primers used for TaqMan real-time RT-PCR were all from the Thermo Fisher Scientific, which included ZIKV (forward sequence: 5-[…]-3, reverse sequence: 5- […]-3, and probe sequence: 5′-[…]-3), IFN-α2 (Hs00265051_s1), IFN-β1 (Hs01077958_s1), eukaryotic 18-s rRNA (Hs99999901_s1), β-actin (Hs99999903_m1), and GAPDH (Catalog number: 4310884E). Relative ZIKV mRNA levels were determined and standardized with a GAPDH or 18-s rRNA endogenous control using comparative ΔΔCT method ([35]). […] For ZIKV in supernatants, RNA was extracted from the supernatants through TRIzol™ LS Reagent (Thermo Fisher Scientific, 10296028) following the manufacturer’s manual. […] Quantitative genomic RNA from ZIKV (NR-1838DQ, ATCC) was used as a standard to calculate viral copies.
(Quantitative PCR measures a nucleic acid by following its amplification.)

The test system of another series is ZIKV strain MR766. Briefly: Direct inactivation of ZIKV by AMPs, plaque-forming assay. As to conditions: 37°C; for Number of infectious virions after direct incubation: 10 µM peptide with ZIKV, all the time points (1, 2, 4 h), plaque assay; for Inactivation of Zika virions: plaque assay on Vero. Also on record: species or system Zika virus. How it is done:
Vero cells were plated into 12-well plates at 5 (10^5 cells/well the day before infection). On the day of infection, the monolayers of Vero cells were inoculated with 100 µL of 10-fold serial dilutions of viral stocks and incubated at 37 °C for 1 h. After viral inoculation, medium containing ZIKV particles was removed and 1 ml overlay containing 0.6% molecular biology grade agarose (Agarose Unlimited, Alachua, FL, USA) in Modified Eagle Medium (Gibco) with 2% FBS. Cells were maintained at 37°C in 5% CO2 for 4 days. On day 5, cells were fixed with 4% paraformaldehyde solution in PBS and stained with 1% crystal violet solution in 20% methanol in water. Viral plaques were photographed using a CanonScan 9950F scanner and each plaque was counted as a plaque-forming unit (PFU). Viral titer was calculated as PFU/[volume virus (mL) × (dilution factor)].
Zika virus viral stocks were diluted to 10^6 PFU/mL with serum-free medium and peptides were added at the indicated final concentrations. The mixtures were incubated at 37°C for 1–4 h. At each time point, 200 µL of the mixtures was removed for virus yield determination. Ten-fold serial dilutions of the mixtures were prepared and number of infectious Zika virions in the inoculum was determined by the aforementioned plaque-forming assay on Vero cell monolayers.
Figure 7 GF-17 directly inactivates Zika virions. (A) Experimental scheme. Briefly, Zika virus (ZIKV) virions were directly treated with antimicrobial peptides at 37°C. Part of the inoculum was removed at the indicated time points and serial diluted for the plaque-forming assay to determine the number of infectious Zika virions. (B) Quantification of the viral plaques was performed and plaque-forming unit at each of the treatment groups was shown. ANOVA and Bonferroni post-test were performed on all groups. *** p < 0.001, as compared with the ZIKV control group (CTL, control).

Where [1] appears, read: uninfected human fetal astrocytes.

In general, EC50 refers to the midpoint of the concentration-response curve. Consider `CC[C@H](C)[C@H](NC(=O)[C@H](CCCCN)NC(=O)[C@H](CCCCN)NC(=O)[C@H](Cc1ccccc1)NC(=O)[C@H](CC(C)C)NC(=O)[C@H](CCCCN)NC(=O)[C@H](CCCCN)NC(=O)[C@H](Cc1ccccc1)NC(=O)[C@H](CCCCN)NC(=O)[C@H](CCCCN)NC(=O)[C@H](CCCNC(=N)N)NC(=O)[C@H](Cc1ccccc1)NC(=O)[C@H](CCCNC(=N)N)NC(=O)[C@H](CCCCN)NC(=O)[C@H](Cc1ccccc1)NC(=O)[C@H](CCCNC(=N)N)NC(=O)CN)C(=O)N[C@@H](CO)C(=O)O` [BMAP-18] (H-GRFKRFRKKFKKLFKKIS-OH; N-terminus and C-terminus assumed), for which the EC50 at 48 h in the series “in vitro” was over 50 µM. Also, the “Cytotoxicity to Vero cells at 10 µM” value with Vero cells is “minimal cytotoxicity”. In the series with IFN-α2, the “IFN-α2 expression in ZIKV-infected fetal astrocytes” value is given as “significantly increased IFN-α2 expression levels in a dose-dependent manner”. For the same molecule, the “Increase of IFN-α2 expression in uninfected fetal astrocytes” value in the series with IFN-α2 (uninfected human fetal astrocytes, difference not statistically significant) was 7 folds. In the series with ZIKV strain MR766, the “Number of infectious virions after direct incubation” value is “did not significantly change the number of infectious virions”.
Take `CC[C@H](C)[C@H](NC(=O)[C@H](CCCNC(=N)N)NC(=O)[C@H](CCC(N)=O)NC(=O)[C@@H](NC(=O)[C@@H](NC(=O)[C@H](CCCNC(=N)N)NC(=O)[C@H](CCCCN)NC(=O)[C@H](Cc1ccccc1)NC(=O)CN)[C@@H](C)CC)C(C)C)C(=O)N[C@@H](CCCCN)C(=O)N[C@@H](CC(=O)O)C(=O)N[C@@H](Cc1ccccc1)C(=O)N[C@@H](CC(C)C)C(=O)N[C@@H](CCCNC(=N)N)C(=O)N[C@@H](CC(N)=O)C(=O)N[C@@H](CC(C)C)C(=O)N[C@H](C(N)=O)C(C)C` [GF-17] (H-GFKRIVQRIKDFLRNLV-NH2; N-terminus and C-terminus assumed): in the series “in vitro”, the EC50 at 48 h was over 50 µM. In addition, the “Cytotoxicity to Vero cells at 10 µM” value with Vero cells is “minimal cytotoxicity”. The “IFN-α2 expression in ZIKV-infected fetal astrocytes” value in the series on IFN-α2 is recorded as “significantly increased IFN-α2 expression levels in a dose-dependent manner”. Also, the “IFN-α2 expression in uninfected fetal astrocytes” value with IFN-α2 (setting [1]) was “significantly increased IFN-α2 expression”. The “Inactivation of Zika virions” value is given as over 95% in the series with ZIKV strain MR766 (10 µM peptide mixed with ZIKV (10^6 PFU/mL, serum-free medium), 1-h incubation); over 99% in the series on ZIKV strain MR766 (10 µM peptide mixed with ZIKV, 2-h incubation); 99% with ZIKV strain MR766 (10 µM peptide mixed with ZIKV, 4-h incubation).
`CC[C@H](C)[C@H](NC(=O)[C@H](CCCNC(=N)N)NC(=O)[C@H](CCC(N)=O)NC(=O)[C@@H](NC(=O)[C@@H](NC(=O)[C@@H](N)CCCNC(=N)N)[C@@H](C)CC)C(C)C)C(=O)N[C@@H](CCCCN)C(=O)N[C@@H](CC(=O)O)C(=O)N[C@@H](Cc1ccccc1)C(=O)N[C@@H](CC(C)C)C(=O)O` [RI-10, reference compound] (H-RIVQRIKDFL-OH; N-terminus and C-terminus assumed) yielded an EC50 at 48 h in the series “in vitro” of over 50 µM. In addition, in the series with Vero cells, the “Cytotoxicity to Vero cells at 10 µM” value is “minimal cytotoxicity”. For the same molecule, the “IFN-α2 expression in ZIKV-infected fetal astrocytes” value in the series with IFN-α2 was “but not RI-10, significantly increased IFN-α2 expression levels”. For the same molecule, the “IFN-α2 expression in uninfected fetal astrocytes” value in the series on IFN-α2 (setting [1]) was “did not affect the expression levels of IFN-α2”. In addition, the “Number of infectious virions after direct incubation” value in the series on ZIKV strain MR766 was “did not significantly change the number of infectious virions”.
